From patent US12565501B2, “Muscarinic acetylcholine M1 receptor antagonists” (Contineum Therapeutics, Inc., priority 2019, dated 2026)
Counter-ions that a name gives are not always drawn. Like-named read-outs stand apart in the source and are kept apart here.

Molecular target: T1, human M1 receptor (Homo sapiens, UniProt P11229)
T1 sequence (P11229 1-460): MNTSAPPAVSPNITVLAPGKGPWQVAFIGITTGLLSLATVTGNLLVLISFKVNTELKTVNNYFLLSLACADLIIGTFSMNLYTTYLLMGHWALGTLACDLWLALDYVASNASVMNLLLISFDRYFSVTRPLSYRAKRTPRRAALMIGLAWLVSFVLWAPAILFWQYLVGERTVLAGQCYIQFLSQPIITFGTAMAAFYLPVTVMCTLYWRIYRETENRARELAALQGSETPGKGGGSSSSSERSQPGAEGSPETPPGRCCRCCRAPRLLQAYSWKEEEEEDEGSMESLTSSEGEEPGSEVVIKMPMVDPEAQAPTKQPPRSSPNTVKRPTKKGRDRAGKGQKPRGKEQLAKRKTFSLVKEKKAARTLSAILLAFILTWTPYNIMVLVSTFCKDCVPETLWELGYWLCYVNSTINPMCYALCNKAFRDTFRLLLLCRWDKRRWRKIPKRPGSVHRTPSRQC
Experiment: In vitro functional assay of muscarinic acetylcholine receptor activity (aequorin calcium flux, reversal of EC80 acetylcholine response)
Type: cell-based
Conditions: acetylcholine at EC80, calcium flux (luminescence)
Outline: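 Antagonist mode: compound (final 0.1% DMSO) and coelenterazine-loaded M1/aequorin CHO-K1 cells incubated 30 min in the dark before EC80 acetylcholine addition. Calcium flash integrated as 40 s luminescence AUC; IC50 derived from dose-response curves.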

[1] = CHO-K1 cells stably expressing human M1 receptor with aequorin, read-out: M1 IC50

SMILES	IC50 [1] [nM]	IC50 (M1 IC50, CHO-K1 cells stably expressing human M1 receptor with aequorin) [nM]
N#Cc1ccc(N2C3CCC2CN(C(=O)COC2(c4c(F)cnc(Br)c4F)CCC2)C3)nc1 [Example 270, 6-(3-(2-(1-(2-bromo-3,5-difluoropyridin-4-yl)cyclobutoxy)acetyl)-3,8-diazabicyclo[3.2.1]octan-8-yl)nicotinonitrile]	< 10	
N#Cc1ccc(N2C3CCC2CN(C(=O)COC2(c4ncc(F)cc4F)CCC2)C3)nc1 [Example 271, 6-(3-(2-(1-(3,5-difluoropyridin-2-yl)cyclobutoxy)acetyl)-3,8-diazabicyclo[3.2.1]octan-8-yl)nicotinonitrile]	100 to 1000	
COc1ncc(F)c(C2(OCC(=O)N3CC4CCC(C3)N4c3ccc(C#N)cn3)CCC2)c1F [Example 272, 6-(3-(2-(1-(3,5-difluoro-2-methoxypyridin-4-yl)cyclobutoxy)acetyl)-3,8-diazabicyclo[3.2.1]octan-8-yl)nicotinonitrile]	10 to 100	
N#Cc1ccc(N2C3CCC2CN(C(=O)COC2(c4ncccn4)CCC2)C3)nc1 [Example 273, 6-(3-(2-(1-(pyrimidin-2-yl)cyclobutoxy)acetyl)-3,8-diazabicyclo[3.2.1]octan-8-yl)nicotinonitrile]	100 to 1000	
N#Cc1ccc(N2C3CCC2CN(C(=O)COC2(c4cccnn4)CCC2)C3)nc1 [Example 274, 6-(3-(2-(1-(pyridazin-3-yl)cyclobutoxy)acetyl)-3,8-diazabicyclo[3.2.1]octan-8-yl)nicotinonitrile]	10 to 100	
COc1cc(C2(OCC(=O)N3CC4CCC(C3)N4c3ccc(C#N)cn3)CCC2)cnn1 [Example 275, 6-(3-(2-(1-(6-methoxypyridazin-4-yl)cyclobutoxy)acetyl)-3,8-diazabicyclo[3.2.1]octan-8-yl)nicotinonitrile]	10 to 100	
N#Cc1ccc(N2C3CCC2CN(C(=O)COCC(F)(F)c2cccc4ncccc24)C3)nc1 [Example 276, 6-(3-(2-(2,2-difluoro-2-(quinolin-5-yl)ethoxy)acetyl)-3,8-diazabicyclo[3.2.1]octan-8-yl)nicotinonitrile]	< 10	
COc1cc(C(F)(F)COCC(=O)N2CC3CCC(C2)N3c2ccc(C#N)cn2)ccn1 [Example 277, 6-(3-(2-(2,2-difluoro-2-(2-methoxypyridin-4-yl)ethoxy)acetyl)-3,8-diazabicyclo[3.2.1]octan-8-yl)nicotinonitrile]	100 to 1000	
N#Cc1ccc(N2C3CCC2CN(C(=O)COCC(F)(F)c2cccn4ncnc24)C3)nc1 [Example 278, 6-(3-(2-(2-([1,2,4]triazolo[1,5-a]pyridin-8-yl)-2,2-difluoroethoxy)acetyl)-3,8-diazabicyclo[3.2.1]octan-8-yl)nicotinonitrile]	< 10	
N#Cc1ccc(N2C3COCC2CN(C(=O)COC2(c4ccc(F)c(F)c4)CC2)C3)nc1 [Example 279, 6-(7-(2-(1-(3,4-difluorophenyl)cyclopropoxy)acetyl)-3-oxa-7,9-diazabicyclo[3.3.1]nonan-9-yl)nicotinonitrile]	1000 to 10000	
N#Cc1ccc(N2C3CCC2CN(C(=O)COC2(c4ccc(F)c(F)c4)CC2)C3)nn1 [Example 280, 6-(3-(2-(1-(3,4-difluorophenyl)cyclopropoxy)acetyl)-3,8-diazabicyclo[3.2.1]octan-8-yl)pyridazine-3-carbonitrile]	100 to 1000	
COc1cncc(C2(OCC(=O)N3CC4CCC(C3)N4c3ccnc(C#N)c3)CCC2)c1 [Example 281, 4-(3-(2-(1-(5-methoxypyridin-3-yl)cyclobutoxy)acetyl)-3,8-diazabicyclo[3.2.1]octan-8-yl)picolinonitrile]	< 10	
N#Cc1cc(N2C3CCC2CN(C(=O)COC2(c4ccncc4F)CCC2)C3)ccn1 [Example 282, 4-(3-(2-(1-(3-fluoropyridin-4-yl)cyclobutoxy)acetyl)-3,8-diazabicyclo[3.2.1]octan-8-yl)picolinonitrile]	10 to 100	
N#Cc1ccc(N2C[C@@H]3CC[C@H]2CN3C(=O)COC2(c3ccc(F)c(F)c3)CC2)nc1 [Example 283, 6-((1S,4S)-5-(2-(1-(3,4-difluorophenyl)cyclopropoxy)acetyl)-2,5-diazabicyclo[2.2.2]octan-2-yl)nicotinonitrile]	100 to 1000	
N#Cc1ccc(N2[C@@H]3C[C@H]2CN(C(=O)COC2(c4ccc(F)c(F)c4)CC2)C3)nc1 [Example 284, 6-(3-(2-(1-(3,4-difluorophenyl)cyclopropoxy)acetyl)-3,6-diazabicyclo[3.1.1]heptan-6-yl)nicotinonitrile]	1000 to 10000	
N#Cc1ccc(N2C[C@H]3C[C@@H]2CN3C(=O)COC2(c3ccc(F)c(F)c3)CC2)nc1 [Example 285, 6-((1R,4R)-5-(2-(1-(3,4-difluorophenyl)cyclopropoxy)acetyl)-2,5-diazabicyclo[2.2.1]heptan-2-yl)nicotinonitrile]	> 1000	
N#Cc1ccc(N2C[C@H]3CC[C@@H]2CN3C(=O)COC2(c3ccc(F)c(F)c3)CC2)nc1 [Example 286, 6-((1R,4R)-5-(2-(1-(3,4-difluorophenyl)cyclopropoxy)acetyl)-2,5-diazabicyclo[2.2.2]octan-2-yl)nicotinonitrile]	> 1000	
N#Cc1ccc(N2C[C@@H]3C[C@H]2CN3C(=O)COC2(c3ccc(F)c(F)c3)CC2)nc1 [Example 287, 6-((1S,4S)-5-(2-(1-(3,4-difluorophenyl)cyclopropoxy)acetyl)-2,5-diazabicyclo[2.2.1]heptan-2-yl)nicotinonitrile]	1000 to 10000	
N#Cc1ccc(N2C3CCC2CN(C(=O)CCNC2(c4ccc(F)c(C#N)c4)CC2)C3)nc1 [Example 288, 6-(3-(3-((1-(3-cyano-4-fluorophenyl)cyclopropyl)amino)propanoyl)-3,8-diazabicyclo[3.2.1]octan-8-yl)nicotinonitrile formic acid Salt]		10 to 100
N#Cc1ccc(N2C3CCC2CN(C(=O)CCNC2(c4cc(Cl)cc(C#N)c4)CC2)C3)nc1 [Example 289, 6-(3-(3-((1-(3-chloro-5-cyanophenyl)cyclopropyl)amino)propanoyl)-3,8-diazabicyclo[3.2.1]octan-8-yl)nicotinonitrile]	100 to 1000	
N#Cc1ccc(N2C3CCC2CN(C(=O)COC2(c4cccc(C#N)c4F)CC2)C3)nc1 [Example 290, 6-(3-(2-(1-(3-cyano-2-fluorophenyl)cyclopropoxy)acetyl)-3,8-diazabicyclo[3.2.1]octan-8-yl)nicotinonitrile]	1000 to 10000	
N#Cc1ccc(N2C3CCC2CN(C(=O)COC2(c4ccc(F)c(C#N)c4)CC2)C3)nc1 [Example 291, 6-(3-(2-(1-(3-cyano-4-fluorophenyl)cyclopropoxy)acetyl)-3,8-diazabicyclo[3.2.1]octan-8-yl)nicotinonitrile]	100 to 1000	
N#Cc1ccc(N2C3CCC2CN(C(=O)COC2(c4cc(F)cc(C#N)c4)CC2)C3)nc1 [Example 292, 6-(3-(2-(1-(3-cyano-5-fluorophenyl)cyclopropoxy)acetyl)-3,8-diazabicyclo[3.2.1]octan-8-yl)nicotinonitrile]	100 to 1000	
COc1ccc(C#N)c(C2(OCC(=O)N3CC4CCC(C3)N4c3ccc(C#N)cn3)CC2)c1 [Example 293, 6-(3-(2-(1-(2-cyano-5-methoxyphenyl)cyclopropoxy)acetyl)-3,8-diazabicyclo[3.2.1]octan-8-yl)nicotinonitrile]	< 10	
N#Cc1ccc(N2C3CCC2CN(C(=O)COC2(c4ccccc4C#N)CC2)C3)nc1 [Example 294, 6-(3-(2-(1-(2-cyanophenyl)cyclopropoxy)acetyl)-3,8-diazabicyclo[3.2.1]octan-8-yl)nicotinonitrile]	100 to 1000	
